From PubChem BioAssay AID1259407 (Chemical Carcinogenesis Research Information System (CCRIS), 2018) come the findings set out here.

The data set relates to CCRIS mutagenicity, Ames/micronucleus/aberration tests. Put plainly: CCRIS mutagenicity studies.
The mark [1] stands for this setting: Test System: AMES SALMONELLA TYPHIMURIUM, Strain/Indicator: TA98, Metabolic Activation: NONE, Method: STANDARD PLATE.
Setting [2] is: Test System: AMES SALMONELLA TYPHIMURIUM, Strain/Indicator: TA100, Metabolic Activation: NONE, Method: STANDARD PLATE.

The structures appear in SMILES notation. The source made the active and inactive calls. The rule behind the calls is not given here.

In the case of `CCc1ccccc1`, the mutagenic call is, setting by setting: (Test System: AMES SALMONELLA TYPHIMURIUM, Strain/Indicator: TA97, Metabolic Activation: HAMSTER, LIVER, S-9, AROCLOR 1254, Method: PREINCUBATION) “inactive; negative”; (Test System: AMES SALMONELLA TYPHIMURIUM, Strain/Indicator: TA97, Metabolic Activation: NONE, Method: PREINCUBATION) “inactive; negative”; (Test System: AMES SALMONELLA TYPHIMURIUM, Strain/Indicator: TA97, Metabolic Activation: RAT, LIVER, S-9, AROCLOR 1254, Method: PREINCUBATION) “inactive; negative”; (Test System: AMES SALMONELLA TYPHIMURIUM, Strain/Indicator: TA98, Metabolic Activation: HAMSTER LIVER S-9, AROCLOR 1254 (10 OR 30%), Method: PREINCUBATION) “inactive; negative”; (Test System: AMES SALMONELLA TYPHIMURIUM, Strain/Indicator: TA98, Metabolic Activation: HAMSTER, LIVER, S-9, AROCLOR 1254, Method: PREINCUBATION) “inactive; negative”; (Test System: AMES SALMONELLA TYPHIMURIUM, Strain/Indicator: TA98, Metabolic Activation: NONE, Method: PREINCUBATION) “inactive; negative”. The mutagenic call is “inactive; negative” (Test System: AMES SALMONELLA TYPHIMURIUM, Strain/Indicator: TA98, Metabolic Activation: RAT LIVER S-9, AROCLOR 1254 (10 OR 30%), Method: PREINCUBATION); “inactive; negative” (Test System: AMES SALMONELLA TYPHIMURIUM, Strain/Indicator: TA98, Metabolic Activation: RAT, LIVER, S-9, AROCLOR 1254, Method: PREINCUBATION); “inactive; negative” (Test System: AMES SALMONELLA TYPHIMURIUM, Strain/Indicator: TA100, Metabolic Activation: HAMSTER LIVER S-9, AROCLOR 1254 (10 OR 30%), Method: PREINCUBATION); “inactive; negative” (Test System: AMES SALMONELLA TYPHIMURIUM, Strain/Indicator: TA100, Metabolic Activation: HAMSTER, LIVER, S-9, AROCLOR 1254, Method: PREINCUBATION); “inactive; negative” (Test System: AMES SALMONELLA TYPHIMURIUM, Strain/Indicator: TA100, Metabolic Activation: NONE, Method: PREINCUBATION); “inactive; negative” (Test System: AMES SALMONELLA TYPHIMURIUM, Strain/Indicator: TA100, Metabolic Activation: RAT LIVER S-9, AROCLOR 1254 (10 OR 30%), Method: PREINCUBATION). Moreover, the mutagenic call is “inactive; negative” (Test System: AMES SALMONELLA TYPHIMURIUM, Strain/Indicator: TA100, Metabolic Activation: RAT, LIVER, S-9, AROCLOR 1254, Method: PREINCUBATION); “inactive; negative” (Test System: AMES SALMONELLA TYPHIMURIUM, Strain/Indicator: TA1535, Metabolic Activation: HAMSTER LIVER S-9, AROCLOR 1254 (10 OR 30%), Method: PREINCUBATION); “inactive; negative” (Test System: AMES SALMONELLA TYPHIMURIUM, Strain/Indicator: TA1535, Metabolic Activation: HAMSTER, LIVER, S-9, AROCLOR 1254, Method: PREINCUBATION); “inactive; negative” (Test System: AMES SALMONELLA TYPHIMURIUM, Strain/Indicator: TA1535, Metabolic Activation: NONE, Method: PREINCUBATION); “inactive; negative” (Test System: AMES SALMONELLA TYPHIMURIUM, Strain/Indicator: TA1535, Metabolic Activation: RAT LIVER S-9, AROCLOR 1254 (10 OR 30%), Method: PREINCUBATION); “inactive; negative” (Test System: AMES SALMONELLA TYPHIMURIUM, Strain/Indicator: TA1535, Metabolic Activation: RAT, LIVER, S-9, AROCLOR 1254, Method: PREINCUBATION). Further, the mutagenic call (Test System: AMES SALMONELLA TYPHIMURIUM, Strain/Indicator: TA1537, Metabolic Activation: HAMSTER LIVER S-9, AROCLOR 1254 (10 OR 30%), Method: PREINCUBATION) is “inactive; negative”; the mutagenic call (Test System: AMES SALMONELLA TYPHIMURIUM, Strain/Indicator: TA1537, Metabolic Activation: NONE, Method: PREINCUBATION) is “inactive; negative”; the mutagenic call (Test System: AMES SALMONELLA TYPHIMURIUM, Strain/Indicator: TA1537, Metabolic Activation: RAT LIVER S-9, AROCLOR 1254 (10 OR 30%), Method: PREINCUBATION) was “inactive; negative”; the mutagenic call (Test System: MOUSE LYMPHOMA, Strain/Indicator: L5178Y (TK+/TK-), Metabolic Activation: NONE, Method: SUSPENSION/PLATE) was “active; positive”.
As for `Fc1cccc2ccc3ncccc3c12`, the mutagenic call (Test System: AMES SALMONELLA TYPHIMURIUM, Strain/Indicator: TA100, Metabolic Activation: RAT, LIVER, S-9, PHENOBARBITAL AND 5,6-BENZOFLAVONE, Method: PREINCUBATION) was “active; positive”.
In the case of `CC(C)c1c(C(=O)Nc2ccccc2)c(-c2ccccc2)c(-c2ccc(F)cc2)n1CC[C@@H](O)C[C@@H](O)CC(=O)O`, the mutagenic call reads like this: under setting [1], “inactive; negative”; (Test System: AMES SALMONELLA TYPHIMURIUM, Strain/Indicator: TA98, Metabolic Activation: RAT, LIVER, S-9, AROCLOR 1254, Method: STANDARD PLATE) “inactive; negative”; under setting [2], “inactive; negative”; (Test System: AMES SALMONELLA TYPHIMURIUM, Strain/Indicator: TA100, Metabolic Activation: RAT, LIVER, S-9, AROCLOR 1254, Method: STANDARD PLATE) “inactive; negative”; (Test System: AMES SALMONELLA TYPHIMURIUM, Strain/Indicator: TA1535, Metabolic Activation: NONE, Method: STANDARD PLATE) “inactive; negative”; (Test System: AMES SALMONELLA TYPHIMURIUM, Strain/Indicator: TA1535, Metabolic Activation: RAT, LIVER, S-9, AROCLOR 1254, Method: STANDARD PLATE) “inactive; negative”. For the same compound, the mutagenic call runs as follows: (Test System: AMES SALMONELLA TYPHIMURIUM, Strain/Indicator: TA1537, Metabolic Activation: NONE, Method: STANDARD PLATE) “inactive; negative”; (Test System: AMES SALMONELLA TYPHIMURIUM, Strain/Indicator: TA1537, Metabolic Activation: RAT, LIVER, S-9, AROCLOR 1254, Method: STANDARD PLATE) “inactive; negative”; (Test System: AMES SALMONELLA TYPHIMURIUM, Strain/Indicator: TA1538, Metabolic Activation: NONE, Method: STANDARD PLATE) “inactive; negative”; (Test System: AMES SALMONELLA TYPHIMURIUM, Strain/Indicator: TA1538, Metabolic Activation: RAT, LIVER, S-9, AROCLOR 1254, Method: STANDARD PLATE) “inactive; negative”; (Test System: CHINESE HAMSTER V-79, Strain/Indicator: V-79 (HGPRT)/6-THIOGUANINE, Metabolic Activation: NONE) “inactive; negative”; (Test System: CHINESE HAMSTER V-79, Strain/Indicator: V-79 (HGPRT)/6-THIOGUANINE, Metabolic Activation: RAT, LIVER, S-9, AROCLOR 1254) “inactive; negative”. For the same compound, the mutagenic call is “inactive; negative” (Test System: E. COLI, Strain/Indicator: WP2 UVRA, Metabolic Activation: NONE, Method: STANDARD PLATE) and “inactive; negative” (Test System: E. COLI, Strain/Indicator: WP2 UVRA, Metabolic Activation: RAT, LIVER, S-9, AROCLOR 1254, Method: STANDARD PLATE).
Turning to `Cc1c(N)ccc(N=Nc2ccccc2)c1N`, the mutagenic call by setting is: (Test System: AMES SALMONELLA TYPHIMURIUM, Strain/Indicator: TA100, Metabolic Activation: HUMAN, LIVER, S-9, Method: PREINCUBATION) “active; positive”; (Test System: AMES SALMONELLA TYPHIMURIUM, Strain/Indicator: TA100, Metabolic Activation: RAT, LIVER, S-9, BETA-NAPHTHOFLAVONE, Method: PREINCUBATION) “active; positive”; (Test System: AMES SALMONELLA TYPHIMURIUM, Strain/Indicator: TA100, Metabolic Activation: RAT, LIVER, S-9, PHENOBARBITAL, Method: PREINCUBATION) “active; positive”; (Test System: AMES SALMONELLA TYPHIMURIUM, Strain/Indicator: TA100, Metabolic Activation: RAT, LIVER, S-9, Method: PREINCUBATION) “active; positive”; (Test System: UDS RODENT HEPATOCYTES, Strain/Indicator: THY INCORP, Metabolic Activation: NONE, Method: AUTORADIOGRAPHY) “active; positive”.
Take `COc1ccc2cc(CCC(C)=O)ccc2c1`: the mutagenic call by setting is: (Test System: AMES SALMONELLA TYPHIMURIUM, Strain/Indicator: TA97, Metabolic Activation: NONE, Method: STANDARD PLATE) “inactive; negative”; (Test System: AMES SALMONELLA TYPHIMURIUM, Strain/Indicator: TA97, Metabolic Activation: S-9, Method: STANDARD PLATE) “inactive; negative”; under setting [1], “inactive; negative”; (Test System: AMES SALMONELLA TYPHIMURIUM, Strain/Indicator: TA98, Metabolic Activation: S-9, Method: STANDARD PLATE) “inactive; negative”; under setting [2], “inactive; negative”; (Test System: AMES SALMONELLA TYPHIMURIUM, Strain/Indicator: TA100, Metabolic Activation: S-9, Method: STANDARD PLATE) “inactive; negative”. Moreover, the mutagenic call is “inactive; negative” (Test System: AMES SALMONELLA TYPHIMURIUM, Strain/Indicator: TA102, Metabolic Activation: NONE, Method: STANDARD PLATE) and “inactive; negative” (Test System: AMES SALMONELLA TYPHIMURIUM, Strain/Indicator: TA102, Metabolic Activation: S-9, Method: STANDARD PLATE).
